Measured values taken from ChEMBL document CHEMBL4376834, “Discovery of 4H-Chromen-4-one Derivatives as a New Class of Selective Rho Kinase (ROCK) Inhibitors, which Showed Potent Activity in ex Vivo Diabetic Retinopathy Models” (J Med Chem, 2019).

Columns and labels:
[1] = molecular target: Serine/threonine-protein kinase PAK 1 (Homo sapiens, UniProt Q13153); experiment: Inhibition of recombinant human PAK1 (150 to end residues) using RRRLSFAEPG as substrate measured after 40 mins in presence of [gamma33P]ATP by radiometric scintillation counting analysis
[2] = molecular target: SRSF protein kinase 3 (Homo sapiens, UniProt Q9UPE1); experiment: Inhibition of recombinant full-length human MSSK1 using ERMRPRKRQGSVRRRV as substrate measured after 40 mins in presence of [gamma33P]ATP by radiometric scintillation counting analysis
Sequence of SRSF protein kinase 3 (Q9UPE1 whole entry): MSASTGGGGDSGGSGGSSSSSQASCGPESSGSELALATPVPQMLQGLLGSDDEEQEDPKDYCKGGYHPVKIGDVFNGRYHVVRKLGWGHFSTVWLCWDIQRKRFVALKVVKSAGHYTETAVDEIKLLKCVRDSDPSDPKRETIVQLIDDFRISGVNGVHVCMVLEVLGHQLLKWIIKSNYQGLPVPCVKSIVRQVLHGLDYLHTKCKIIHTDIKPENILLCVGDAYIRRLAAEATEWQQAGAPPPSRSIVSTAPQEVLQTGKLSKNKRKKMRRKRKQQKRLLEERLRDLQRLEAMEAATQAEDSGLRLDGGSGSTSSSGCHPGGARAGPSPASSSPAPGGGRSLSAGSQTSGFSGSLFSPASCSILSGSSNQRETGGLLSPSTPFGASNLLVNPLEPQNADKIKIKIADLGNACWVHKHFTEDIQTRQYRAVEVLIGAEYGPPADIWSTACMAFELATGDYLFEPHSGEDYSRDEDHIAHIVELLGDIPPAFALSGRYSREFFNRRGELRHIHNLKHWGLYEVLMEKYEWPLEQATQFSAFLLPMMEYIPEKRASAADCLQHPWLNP

[3] = molecular target: Tyrosine-protein kinase JAK2 (Homo sapiens, UniProt O60674); experiment: Inhibition of human recombinant JAK2 (808 to end residues) using KTFCGTPEYLAPE as substrate after 40 mins by [gamma-33ATP] by radiometric scintillation counting analysis
[4] = Inhibition of recombinant human PKCeta V108L/G109R/L392Q triple mutant (2 to end residues) using ERMRPRKRQGSVRR as substrate incubated for 40 mins in presence of [gamma33P]ATP by radiometric scintillation counting analysis
[5] = molecular target: Transient receptor potential cation channel subfamily M member 7 (Homo sapiens, UniProt Q96QT4); experiment: Inhibition of recombinant human CHAK1 (1180 to end residues) using myelin basic protein as substrate incubated for 40 mins in presence of [gamma-33ATP] by radiometric scintillation counting analysis
[6] = molecular target: Serine/threonine-protein kinase 3 (Homo sapiens, UniProt Q13188); experiment: Inhibition of recombinant human MST2 (2 to end residues) using myelin basic protein as substrate measured after 40 mins in presence of [gamma33P]ATP by radiometric scintillation counting analysis
[7] = molecular target: Insulin receptor (Homo sapiens, UniProt P06213); experiment: Inhibition of human recombinant IR (1005 to 1310 residues) using KKSRGDYMTMQIG as substrate after 40 mins by [gamma-33ATP] by radiometric scintillation counting analysis
[8] = molecular target: Serine/threonine-protein kinase mTOR (Homo sapiens, UniProt P42345); experiment: Inhibition of recombinant full length human mTOR measured after 40 mins in presence of [gamma33P]ATP by radiometric scintillation counting analysis
[9] = molecular target: Serine/threonine-protein kinase VRK2 (Homo sapiens, UniProt Q86Y07); experiment: Inhibition of recombinant human VRK2 (1 to 336 residues) using casein as substrate incubated for 40 mins in presence of [gamma33P]ATP by radiometric scintillation counting analysis
[10] = molecular target: Aurora kinase B (Homo sapiens, UniProt Q96GD4); experiment: Inhibition of recombinant full length human AURORA-B using AKRRRLSSLRA as substrate incubated for 40 mins in presence of [gamma-33P]ATP and 10 uM ATP by radiometric scintillation counting analysis
[11] = molecular target: Protein kinase C delta type (Homo sapiens, UniProt Q05655); experiment: Inhibition of recombinant human PKCdelta (2 to end residues) using ERMRPRKRQGSVRR as substrate incubated for 40 mins in presence of [gamma33P]ATP by radiometric scintillation counting analysis
[12] = molecular target: Receptor-type tyrosine-protein kinase FLT3 (Homo sapiens, UniProt P36888); experiment: Inhibition of recombinant human FLT3 (564 to end residues) using EAIYAAPFAKKK as substrate after 40 mins in presence of [gamma-33ATP] by radiometric scintillation counting analysis
[13] = molecular target: Proto-oncogene tyrosine-protein kinase receptor Ret (Homo sapiens, UniProt P07949, V804M); experiment: Inhibition of recombinant human Ret V804M mutant (658 to end residues) using KKKVSRSGLYRSP as substrate incubated for 40 mins in presence of [gamma33P]ATP by radiometric scintillation counting analysis
[14] = molecular target: Inhibitor of nuclear factor kappa-B kinase subunit beta (Homo sapiens, UniProt O14920); experiment: Inhibition of recombinant full length human IKKbeta using peptide substrate after 40 mins by [gamma-33ATP] by radiometric scintillation counting analysis
[15] = molecular target: Mitogen-activated protein kinase kinase kinase 20 (Homo sapiens, UniProt Q9NYL2); experiment: Inhibition of recombinant full-length human ZAK using MBP as substrate incubated for 40 mins in presence of [gamma33P]ATP by radiometric scintillation counting analysis
[16] = molecular target: Serine/threonine-protein kinase 33 (Homo sapiens, UniProt Q9BYT3); experiment: Inhibition of recombinant full-length human STK33 using myelin basic protein as substrate incubated for 40 mins in presence of [gamma33P]ATP by radiometric scintillation counting analysis
Sequence of Serine/threonine-protein kinase 33 (Q9BYT3 whole entry): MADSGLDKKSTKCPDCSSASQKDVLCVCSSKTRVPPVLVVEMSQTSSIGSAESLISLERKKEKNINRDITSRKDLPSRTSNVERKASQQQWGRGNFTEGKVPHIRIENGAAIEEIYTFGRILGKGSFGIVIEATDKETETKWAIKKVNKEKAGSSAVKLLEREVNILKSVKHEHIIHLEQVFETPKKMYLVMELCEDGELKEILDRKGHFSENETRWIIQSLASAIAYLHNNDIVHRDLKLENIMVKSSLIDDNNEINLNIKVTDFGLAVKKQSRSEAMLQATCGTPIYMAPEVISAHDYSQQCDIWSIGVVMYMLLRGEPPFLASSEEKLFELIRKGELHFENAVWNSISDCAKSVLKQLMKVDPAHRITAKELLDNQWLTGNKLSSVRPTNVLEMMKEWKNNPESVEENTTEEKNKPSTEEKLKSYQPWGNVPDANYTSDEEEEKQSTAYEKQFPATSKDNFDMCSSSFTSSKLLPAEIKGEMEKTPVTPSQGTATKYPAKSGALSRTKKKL

[17] = molecular target: Dual specificity protein kinase CLK3 (Homo sapiens, UniProt P49761); experiment: Inhibition of recombinant full length human CLK3 using ERMRPRKRQGSVR as substrate incubated 40 mins in presence of [gamma-33ATP] by radiometric scintillation counting analysis
[18] = molecular target: Serine/threonine-protein kinase SIK1 (Homo sapiens, UniProt P57059); experiment: Inhibition of recombinant human SIK (1 to 281 residues) using AMARAASAAALARas substrate incubated for 40 mins in presence of [gamma33P]ATP by radiometric scintillation counting analysis
Sequence of Serine/threonine-protein kinase SIK1 (P57059 whole entry, the tested form may be a part): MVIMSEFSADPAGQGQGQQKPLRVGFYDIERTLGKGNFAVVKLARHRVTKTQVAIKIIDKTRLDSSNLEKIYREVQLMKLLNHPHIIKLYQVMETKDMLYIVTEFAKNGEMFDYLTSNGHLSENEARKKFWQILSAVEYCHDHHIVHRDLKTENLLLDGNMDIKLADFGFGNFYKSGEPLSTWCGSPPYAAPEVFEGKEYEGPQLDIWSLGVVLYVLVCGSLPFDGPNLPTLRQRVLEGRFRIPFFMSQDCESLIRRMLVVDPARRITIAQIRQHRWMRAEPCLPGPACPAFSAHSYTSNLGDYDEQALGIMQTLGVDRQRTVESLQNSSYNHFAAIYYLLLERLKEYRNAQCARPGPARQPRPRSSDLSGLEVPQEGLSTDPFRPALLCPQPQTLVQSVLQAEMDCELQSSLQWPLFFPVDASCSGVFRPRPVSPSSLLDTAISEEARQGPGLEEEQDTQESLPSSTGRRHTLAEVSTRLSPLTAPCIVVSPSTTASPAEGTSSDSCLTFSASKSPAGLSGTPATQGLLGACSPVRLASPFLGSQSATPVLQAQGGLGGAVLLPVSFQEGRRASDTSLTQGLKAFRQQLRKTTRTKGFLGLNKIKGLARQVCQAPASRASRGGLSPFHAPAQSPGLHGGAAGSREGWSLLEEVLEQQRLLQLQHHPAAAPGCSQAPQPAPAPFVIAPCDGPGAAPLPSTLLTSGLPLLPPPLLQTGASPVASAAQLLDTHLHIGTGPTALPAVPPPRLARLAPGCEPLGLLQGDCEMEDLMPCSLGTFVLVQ

[19] = molecular target: Serine/threonine-protein kinase ICK (Homo sapiens, UniProt Q9UPZ9); experiment: Inhibition of human recombinant ICK (1 to 312 residues) using RRRFRPASPLRGP as substrate after 40 mins by [gamma-33ATP] by radiometric scintillation counting analysis
Sequence of Serine/threonine-protein kinase ICK (Q9UPZ9 whole entry, the tested form may be a part): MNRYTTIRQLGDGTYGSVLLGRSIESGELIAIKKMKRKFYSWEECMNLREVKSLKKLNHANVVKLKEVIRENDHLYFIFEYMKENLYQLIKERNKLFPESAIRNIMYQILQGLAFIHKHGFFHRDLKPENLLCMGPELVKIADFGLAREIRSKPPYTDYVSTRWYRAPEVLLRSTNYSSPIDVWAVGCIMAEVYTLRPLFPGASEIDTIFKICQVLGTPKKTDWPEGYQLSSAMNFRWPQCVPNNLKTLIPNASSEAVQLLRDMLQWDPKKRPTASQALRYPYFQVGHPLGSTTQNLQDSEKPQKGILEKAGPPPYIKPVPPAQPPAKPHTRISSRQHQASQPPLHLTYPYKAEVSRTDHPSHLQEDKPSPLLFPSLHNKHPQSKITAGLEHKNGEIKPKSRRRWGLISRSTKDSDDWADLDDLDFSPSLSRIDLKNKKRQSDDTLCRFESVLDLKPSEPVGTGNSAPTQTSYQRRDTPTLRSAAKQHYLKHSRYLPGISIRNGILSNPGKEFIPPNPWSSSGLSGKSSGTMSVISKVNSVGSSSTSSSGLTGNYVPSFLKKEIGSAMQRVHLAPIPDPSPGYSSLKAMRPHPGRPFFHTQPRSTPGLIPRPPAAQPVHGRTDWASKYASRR

[20] = molecular target: CDC7/Cyclin B1 (Homo sapiens, UniProt O00311+P14635); experiment: Inhibition of recombinant full length human CDC7/CyclinB1 using Histone H1 as substrate incubated for 120 mins in presence of [gamma-33ATP] by radiometric scintillation counting analysis; assay type: protein-complex assay
[21] = molecular target: PI3-kinase p110-alpha/p85-alpha (Homo sapiens, UniProt P42336, E542K); experiment: Inhibition of recombinant human full length PI3K p110alpha/p85alpha E542K mutant using phosphatidylinositol 4,5-bisphosphate as substrate incubated for 40 mins in presence of [gamma33P]ATP by radiometric scintillation counting analysis
Sequence of PI3-kinase p110-alpha/p85-alpha (P42336 whole entry E542K, looked up): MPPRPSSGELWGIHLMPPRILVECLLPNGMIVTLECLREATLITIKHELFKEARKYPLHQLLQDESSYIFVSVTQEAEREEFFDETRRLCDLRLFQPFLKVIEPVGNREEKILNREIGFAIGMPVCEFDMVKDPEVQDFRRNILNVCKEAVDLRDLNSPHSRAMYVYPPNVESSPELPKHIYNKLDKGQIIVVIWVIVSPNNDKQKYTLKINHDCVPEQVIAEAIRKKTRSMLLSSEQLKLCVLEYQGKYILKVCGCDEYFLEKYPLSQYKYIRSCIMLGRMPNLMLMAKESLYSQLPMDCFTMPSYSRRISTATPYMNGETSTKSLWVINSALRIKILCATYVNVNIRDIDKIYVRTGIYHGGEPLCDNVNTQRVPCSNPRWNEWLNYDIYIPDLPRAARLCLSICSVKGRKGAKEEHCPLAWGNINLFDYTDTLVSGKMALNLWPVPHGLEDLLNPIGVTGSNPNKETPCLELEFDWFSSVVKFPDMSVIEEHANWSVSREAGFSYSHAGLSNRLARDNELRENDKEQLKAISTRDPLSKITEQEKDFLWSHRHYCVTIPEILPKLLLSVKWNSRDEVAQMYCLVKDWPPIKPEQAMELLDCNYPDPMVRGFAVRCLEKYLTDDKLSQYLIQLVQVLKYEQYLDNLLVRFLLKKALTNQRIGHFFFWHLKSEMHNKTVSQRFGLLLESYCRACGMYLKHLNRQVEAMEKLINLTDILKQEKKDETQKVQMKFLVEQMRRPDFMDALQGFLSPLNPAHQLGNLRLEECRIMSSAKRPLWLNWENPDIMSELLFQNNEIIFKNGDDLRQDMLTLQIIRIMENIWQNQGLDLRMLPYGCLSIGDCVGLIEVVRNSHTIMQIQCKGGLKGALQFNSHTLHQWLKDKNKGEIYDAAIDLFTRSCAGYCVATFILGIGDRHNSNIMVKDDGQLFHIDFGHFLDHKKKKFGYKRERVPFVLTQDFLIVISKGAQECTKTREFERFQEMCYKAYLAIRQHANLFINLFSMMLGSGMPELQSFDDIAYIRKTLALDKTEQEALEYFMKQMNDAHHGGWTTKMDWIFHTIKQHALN

[22] = molecular target: Tyrosine-protein kinase ZAP-70 (Homo sapiens, UniProt P43403); experiment: Inhibition of recombinant full length human ZAP70 using poly(Glu, Tyr) 4:1 as substrate incubated for 40 mins in presence of [gamma33P]ATP by radiometric scintillation counting analysis
Sequence of Tyrosine-protein kinase ZAP-70 (P43403 whole entry): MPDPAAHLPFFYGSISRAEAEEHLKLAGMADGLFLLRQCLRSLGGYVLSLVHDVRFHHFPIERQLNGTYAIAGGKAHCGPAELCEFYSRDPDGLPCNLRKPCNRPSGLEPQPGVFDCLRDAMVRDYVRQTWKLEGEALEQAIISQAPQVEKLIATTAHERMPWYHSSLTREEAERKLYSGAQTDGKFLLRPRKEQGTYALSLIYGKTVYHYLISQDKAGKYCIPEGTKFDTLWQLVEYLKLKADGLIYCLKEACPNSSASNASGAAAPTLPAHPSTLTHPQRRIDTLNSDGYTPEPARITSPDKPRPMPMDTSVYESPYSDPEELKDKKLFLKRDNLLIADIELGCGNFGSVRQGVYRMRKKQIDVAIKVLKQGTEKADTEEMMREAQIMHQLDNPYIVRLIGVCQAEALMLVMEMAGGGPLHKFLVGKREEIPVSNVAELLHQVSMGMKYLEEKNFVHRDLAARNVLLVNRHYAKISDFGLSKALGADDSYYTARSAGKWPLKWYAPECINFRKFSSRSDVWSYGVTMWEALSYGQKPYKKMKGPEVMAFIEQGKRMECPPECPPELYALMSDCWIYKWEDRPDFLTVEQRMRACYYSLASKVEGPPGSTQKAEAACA

[23] = molecular target: Activin receptor type-1-like (Homo sapiens, UniProt P37023); experiment: Inhibition of human recombinant ALK1 (142 to end residues) using casein as substrate incubated for 40 mins in presence of [gamma-33P]ATP by radiometric scintillation counting analysis
[24] = molecular target: Platelet-derived growth factor receptor alpha (Homo sapiens, UniProt P16234); experiment: Inhibition of human PDGFRalpha (550 to end residues) using poly(Glu, Tyr) 4:1 as substrate measured after 40 mins in presence of [gamma33P]ATP by radiometric scintillation counting analysis
[25] = molecular target: Serine/threonine-protein kinase TBK1 (Homo sapiens, UniProt Q9UHD2); experiment: Inhibition of recombinant full length human TBK1 using KRRRALS(p)VAS as substrate incubated for 40 mins in presence of [gamma33P]ATP by radiometric scintillation counting analysis
Sequence of Serine/threonine-protein kinase TBK1 (Q9UHD2 whole entry): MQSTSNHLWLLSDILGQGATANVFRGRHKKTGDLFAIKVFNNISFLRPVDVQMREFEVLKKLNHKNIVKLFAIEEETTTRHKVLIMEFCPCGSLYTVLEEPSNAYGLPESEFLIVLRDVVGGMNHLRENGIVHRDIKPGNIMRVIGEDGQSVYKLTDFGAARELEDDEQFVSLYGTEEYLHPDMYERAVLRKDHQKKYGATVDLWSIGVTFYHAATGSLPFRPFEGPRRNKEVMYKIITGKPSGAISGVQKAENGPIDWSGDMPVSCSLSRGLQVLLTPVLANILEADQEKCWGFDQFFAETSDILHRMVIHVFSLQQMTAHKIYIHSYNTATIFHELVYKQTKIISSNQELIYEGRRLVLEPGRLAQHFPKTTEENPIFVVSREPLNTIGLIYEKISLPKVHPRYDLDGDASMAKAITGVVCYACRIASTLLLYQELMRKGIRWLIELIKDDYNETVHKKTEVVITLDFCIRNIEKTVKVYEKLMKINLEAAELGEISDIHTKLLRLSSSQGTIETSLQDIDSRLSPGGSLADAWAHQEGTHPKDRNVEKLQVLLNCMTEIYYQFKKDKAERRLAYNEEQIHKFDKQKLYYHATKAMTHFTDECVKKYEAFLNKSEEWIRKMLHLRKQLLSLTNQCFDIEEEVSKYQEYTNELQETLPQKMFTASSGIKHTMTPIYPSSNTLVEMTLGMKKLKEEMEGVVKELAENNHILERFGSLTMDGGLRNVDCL

## CN(C)c1ccc(C(=O)Nc2cccc(NC(=O)COc3ccc4c(=O)ccoc4c3)c2)cc1
[1]
  IC50: > 10 µM
[2]
  IC50: > 10 µM
[3]
  IC50: > 10 µM
[4]
  IC50: > 10 µM
[5]
  IC50: > 10 µM
[6]
  IC50: > 10 µM
[7]
  IC50: > 10 µM
[8]
  IC50: > 10 µM
[9]
  IC50: > 10 µM
[10]
  IC50: 1.24 µM
[11]
  IC50: > 10 µM
[12]
  IC50: > 10 µM
[13]
  IC50: > 10 µM
[14]
  IC50: > 10 µM
[15]
  IC50: > 10 µM
[16]
  IC50: > 10 µM
[17]
  IC50: > 10 µM
[18]
  IC50: > 10 µM
[19]
  IC50: > 10 µM
[20]
  IC50: > 10 µM
[21]
  IC50: > 10 µM
[22]
  IC50: > 10 µM
[23]
  IC50: > 10 µM
[24]
  IC50: > 10 µM
[25]
  IC50: > 10 µM
